Source: US8796415B2, “Inhibitors of guanine exchange factors and their use as anticancer drugs” (Centre National de la Recherche Scientifique, priority 2009, dated 2014)
“Also recorded” adds a separate entry of the source. Ends that are not written are not given here.

Columns and labels:
p63RhoGEF = target: T1, p63RhoGEF (Homo sapiens, UniProt Q86VW2); assay: mant-GTP fluorescence kinetics specificity assay, RhoA/p63RhoGEF; format: biochemical; details: peptide 20 μM, 0.5 μM GEF, 1 μM RhoA
T1 construct: GST-p63RhoGEF (DH domain) and GST-RhoG were purified as described previously; GST (N); made in house
T1 sequence (Q86VW2 160-336 limits assumed): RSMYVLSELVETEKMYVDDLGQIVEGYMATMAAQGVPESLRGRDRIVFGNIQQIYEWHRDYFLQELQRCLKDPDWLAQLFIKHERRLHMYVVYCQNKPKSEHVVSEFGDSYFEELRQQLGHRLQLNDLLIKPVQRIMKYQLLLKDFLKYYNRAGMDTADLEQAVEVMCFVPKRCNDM
Protocol: (§1) Figures represent the comparison of TRIPE32G and TRIPT16M/L17S inhibition efficiency on different GTPase/RhoGEF systems, using 1 μM GTPase and 0.5 μM GEF as follows:
(§2) In each assay, the peptides were used at a concentration of 20 μM, corresponding to a 40 fold molar excess of inhibitor versus GEF. All fluorescence kinetics assays were performed using 1 μM mant-GTP. Results are expressed as Relative Fluorescence Units (RFU) versus time. The reaction performed in the absence of GEF reflects the spontaneous exchange activity of the GTPase.
(§3) Radioactive [3H]-GDP dissociation assays were performed as described (Schmidt et al., 2002). […] Inhibition efficiency is expressed as the ratio between [3H]-GDP-bound RhoA at 15 and 0 min. Apparent inhibition constants (Kiapp) of TRIP-like peptides were determined from kobs values obtained at increasing peptide concentrations using the above fluorescence nucleotide exchange assay. Kiapp was calculated from the hyperbolic fit of kobs values as a function of the inhibitor concentration as described (Zeeh et al., 2006). TRIP-like peptide specificity was assayed using mant-GTP fluorescence kinetics (λex=360 nm, λem=460 nm) in a FLX800 Microplate Fluorescence Reader (BioTek Instruments). […] The exchange reaction was initiated by addition of 1 μM RhoA or RhoG and monitored for 10 min.

Lbc = target: T2, Lbc (Homo sapiens, UniProt Q12802); assay: mant-GTP fluorescence kinetics specificity assay, RhoA/Lbc; format: biochemical; details: peptide 20 μM, 0.5 μM GEF, 1 μM RhoA
T2 construct: GST-Dbl (DH-PH domain), GST-Lbc (DH-PH), GST-p63RhoGEF (DH domain) and GST-RhoG were purified as described previously; GST (N); made in house
T2 sequence (Q12802 1994-2333): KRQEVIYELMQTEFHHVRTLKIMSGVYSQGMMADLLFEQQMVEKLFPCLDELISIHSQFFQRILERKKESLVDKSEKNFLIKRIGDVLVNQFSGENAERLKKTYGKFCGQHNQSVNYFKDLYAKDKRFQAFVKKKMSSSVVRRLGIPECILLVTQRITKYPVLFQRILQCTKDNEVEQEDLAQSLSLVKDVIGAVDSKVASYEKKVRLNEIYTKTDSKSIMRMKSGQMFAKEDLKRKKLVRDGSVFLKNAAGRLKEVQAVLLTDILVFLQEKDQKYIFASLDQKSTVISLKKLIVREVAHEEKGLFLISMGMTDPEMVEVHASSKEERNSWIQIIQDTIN
Protocol: as §1, §2, §3

Tgat = assay: FRET fluorescence nucleotide exchange kinetics assay, Tgat/RhoA; format: biochemical; details: for Ki / inhibition of Tgat GEF activity in kinetics fluorescence assay: RhoA 1 μM, Tgat 0.5 μM; for Ki: GST-TRIP peptides up to 100 μM, read-out: apparent inhibition constant (Kiapp) towards Tgat; for inhibition of Tgat GEF activity in kinetics fluorescence assay: increasing GST-TRIP peptide concentrations up to 100 μM; for efficiency at inhibiting the exchange activity of Tgat relative to TRIPα: from Kiapp values
Protocol: FIG. 4 represents the inhibition of Tgat GEF activity by TRIPT16M/L17S (SEQ ID NO: 41) and TRIPE32G (SEQ ID NO: 40) in vitro. FRET fluorescence exchange assays were performed using constant concentrations of RhoA (1 μM), equal amounts (0.5 μM) of Tgat (left panel) or Trio DH2 (right panel), and increasing concentrations of GST-TRIP peptides, up to 100 μM. Results were expressed as kobs values plotted as a function of the indicated TRIP inhibitor concentration.
FIG. 5 represents a histogram showing the apparent inhibition constants (Ki app) of the TRIP peptides for Tgat and Trio DH2, as indicated. The values and error bars are calculated from at least three independent experiments. Error bars represent standard deviation
Specific exchange rates of Tgat were measured with a fluorescence-based kinetics assay, using a 6His-RhoA construct (gift of Dr Derewenda, Charlottesville University, Virginia) purified as described (Oleksy et al., 2004). Exchange activities were followed by fluorescence resonance energy transfer (FRET) between the GTPase tryptophanes (λex=292 nm) and the methylanthranyloil group of mant-GTP (λem=440 nm) as described (Zeeh et al., 2006). All fluorescence measurements were performed with a CARY Eclipse fluorimeter (Varian). For each kobs determination, RhoA (1 μM) and Tgat (or Trio DH2) were preincubated 3 min at 25° C. in 700 μL reaction buffer (50 mM Tris pH 7.5, 50 mM NaCl, 2 mM MgCl2, 1 mM DTT). The exchange reaction was initiated by 10 μM mant-GTP and measured for 10 min until the plateau was reached. kobs were calculated by fitting the FRET fluorescence changes to a single exponential, using the Kaleidagraph software. Specific exchange activities were calculated by linear regression of kobs values determined for a range of GEF concentrations (0, 0.2, 0.3, 0.4, 0.5 and 1 μM).
Radioactive [3H]-GDP dissociation assays were performed as described (Schmidt et al., 2002). Briefly, 0.15 μM GST-Trio DH2-PH2 was preincubated for 15 min with 3 μM of GST-TRIP inhibitors. The reaction was started by addition of 0.4 μM [3H]-GDP-loaded RhoA and 1 mM GTP, and the reaction mix was filtered after 0 min and 15 min incubation at 25° C. Inhibition efficiency is expressed as the ratio between [3H]-GDP-bound RhoA at 15 and 0 min. Apparent inhibition constants (Kiapp) of TRIP-like peptides were determined from kobs values obtained at increasing peptide concentrations using the above fluorescence nucleotide exchange assay. Kiapp was calculated from the hyperbolic fit of kobs values as a function of the inhibitor concentration as described (Zeeh et al., 2006). TRIP-like peptide specificity was assayed using mant-GTP fluorescence kinetics (λex=360 nm, λem=460 nm) in a FLX800 Microplate Fluorescence Reader (BioTek Instruments). 0.5 μM Tgat, p63RhoGEF, Lbc, and p115RhoGEF, or 0.1 μM Dbl and Trio DH1-PH1 were preincubated 5 min at 25° C. in the presence of 20 μM GST, GST-TRIPE32G or TRIPT16M/L17S and 1 μM mant-GTP. The exchange reaction was initiated by addition of 1 μM RhoA or RhoG and monitored for 10 min.

[1] = system: Tgat-mediated RhoA activation; assay: RhoA activation assay (GST-RBD pull-down) in NIH3T3 cells stably expressing Tgat; format: cell-based; details: NIH3T3-Tgat cells transfected with GFP-tagged peptide
Protocol: The RhoA activation in NIH3T3-Tgat cells stably transfected with GFP, GFP-TRIPE32G or GFPTRIP T16M/L17S was assayed by the GST-RBD-pulldown assay as described in FIG. 2A.
The level of GTP-bound RhoA was measured by a GST pulldown assay as described (Schmidt et al., 2002). Briefly, cell lysates were incubated with glutathione beads coated with the recombinant Rho-binding domain (RBD) of the RhoA specific effector Rhotekin (Cytoskeleton Inc.).

Substance: GST-TRIPE32G (AREGADGAICGYNLATLVMLGPSERVFCPLCGPCSSDIYELM; cysteine pairing not given here; also: GST fusion)
- effect on exchange activity of p63RhoGEF/RhoA (p63RhoGEF): no effect
- effect on exchange activity of Lbc/RhoA (Lbc): no effect
- efficiency relative to TRIPα (Tgat GEF activity) (Tgat): 15 fold
- Ki (Tgat): 7.4 ± 5 µM
- inhibition of Tgat GEF activity in kinetics fluorescence assay (Tgat): inhibited Tgat GEF activity in a dose-dependent manner; also recorded: low micromolar range
- efficiency at inhibiting the exchange activity of Tgat relative to TRIPα (Tgat): about 15 times
- inhibition of Tgat-mediated activation of RhoA in cells [1]: more efficient than TRIPT16M/L17S

Substance: GST-TRIPT16M/L17S
- effect on exchange activity of p63RhoGEF/RhoA (p63RhoGEF): no effect
- effect on exchange activity of Lbc/RhoA (Lbc): no effect
- efficiency relative to TRIPα (Tgat GEF activity) (Tgat): 15 fold
- Ki (Tgat): 5.1 ± 4 µM
- inhibition of Tgat GEF activity in kinetics fluorescence assay (Tgat): inhibited Tgat GEF activity in a dose-dependent manner; also recorded: low micromolar range
- efficiency at inhibiting the exchange activity of Tgat relative to TRIPα (Tgat): about 15 times
- inhibition of Tgat-mediated activation of RhoA in cells [1]: TRIPE32G was more efficient than TRIPT16M/L17S

Substance: AREGADGAICGYNLATLVMLGPSERVFCPLCEPCSSDIYELM [TRIPα]
- Ki (Tgat): 89 ± 33 µM
- inhibition of Tgat GEF activity in kinetics fluorescence assay (Tgat): rather ineffective
- inhibition of Tgat GEF activity in kinetics fluorescence assay (Tgat; listed as GST-TRIPα): no effect
